Values quoted from earlier work in patent US10463642B2, “Methods of treating heart failure diseases using prodrugs of methyl hydrogen fumarate” (priority 2016, dated 2019).
Where a name gives a salt, the structure may show the parent alone. Read-outs that look alike come from different tables or passages of the source.

How the values were obtained:
[1] = healthy subjects, steady state
[2] = tested on: central nervous system (CNS) inflammation; conditions: rat EAE
[3] = tested on: central nervous system (CNS) inflammation; conditions: murine EAE

SMILES | dose comparable to 240 mg DMF (Tecfidera) by comparing plasma levels of MHF [1] [mg] | CNS inflammation in EAE [2] | CNS inflammation in EAE [3]
CCN(CC)C(=O)COC(=O)/C=C/C(=O)OC [XP23829, (N,N-diethylcarbamoyl)methyl methyl (2E)but-2-ene-1,4-dioate] | 400 |  | 
COC(=O)/C=C/C(=O)OC [DMF, Dimethyl fumarate] |  | inhibit | inhibit
